# In the OPERA property sets (Mansouri et al. 2018):
# Settings: for log10 BCF / log10 biotransformation half-life (days): fish
SMILES,melting point,boiling point,other results
CN(C)C1=NC(=O)C(c2ccccc2)O1 (centres undefined),134 °C,–,–
CC(C)=CCC1=C(O)C(=O)c2ccccc2C1=O,140 °C,–,–
Clc1ccc(Oc2ccc(Cl)c(Cl)c2)cc1Cl,–,–,log10 BCF: 4.51
CC(=O)NCCSC(C)=O,32.5 °C,–,–
N[C@@H](CSSC[C@H](N)C(=O)O)C(=O)O,–,–,ready biodegradability: readily biodegradable
CC(C)(Cl)CCCl,–,147 °C,–
O=[N+]([O-])c1ccc(Nc2ccc(O)cc2)c([N+](=O)[O-])c1,194 °C,–,log10 vapour pressure (mmHg): -11.4
CC1=CCCCC1,–,106 °C,log10 vapour pressure (mmHg): 1.49
CC[C@H](C)C(C)(C)C,-112 °C,110 °C,log10 vapour pressure (mmHg): 1.51
Cc1ccc2c(c1C)CCCC2,–,252 °C,–
CC(=O)CC(C)(C)O,-44 °C,168 °C,log10 vapour pressure (mmHg): 0.233; ready biodegradability: readily biodegradable
CC[C@@H]1C(=O)OC[C@@H]1Cc1cncn1C,34 °C,–,–
CN(C)CCCN1c2ccccc2CCc2ccc(Cl)cc21,190 °C,–,–
Cc1c(C)c(C)c(C)c(C)c1C,166 °C,263 °C,log10 Koa: 6.31; log10 vapour pressure (mmHg): -3.07
CCCCCCCCCCCCCCCCCCl,–,–,log10 vapour pressure (mmHg): -4.34
COc1cc2nc(N3CCN(C(=O)c4ccco4)CC3)nc(N)c2cc1OC,279 °C,–,–
Nc1ccc([N+](=O)[O-])cn1,187 °C,–,–
O=C(O)C1c2ccccc2-c2ccccc21,230 °C,–,–
O=NN(CCCl)C(=O)NC1CCCCC1,89 °C,–,–
Nc1ccc(F)c(Cl)c1,45.5 °C,228 °C,–
Clc1cc2c(cc1Cl)Oc1c(Cl)c(Cl)c(Cl)c(Cl)c1O2,273 °C,–,log10 vapour pressure (mmHg): -10.4; log10 BCF: 4; log10 biotransformation half-life (days): 1.27
CCC(c1ccccc1)c1ccccc1,13.3 °C,282 °C,–
C=C[C@H]1CNCC[C@H]1CCC(=O)c1ccnc2ccccc12,59 °C,–,–
O=C1CCCN1,23 °C,245 °C,log10 vapour pressure (mmHg): -2.02
O=C(OCC(COC(=O)c1cccnc1)(COC(=O)c1cccnc1)COC(=O)c1cccnc1)c1cccnc1,162 °C,–,–

SMILES,melting point,boiling point,other results
O=c1c(O)c(-c2ccc(O)cc2O)oc2cc(O)cc(O)c12,304 °C,–,–
O=c1ccn([C@@H]2C[C@@H](O)[C@H](CO)O2)c(=O)[nH]1,163 °C,–,–
Clc1cncc(Cl)n1,56.5 °C,–,–
Nc1ncnc2c1ncn2[C@]1(CO)O[C@H](CO)[C@@H](O)[C@H]1O,212 °C,–,–
CCC1CCCS1 (centres undefined),–,157 °C,–
Cc1ccccc1NC(=N)Nc1ccccc1C,179 °C,–,–
COCC(C)N(C(=O)CCl)c1c(C)csc1C (centres undefined),–,–,log10 Henry constant (atm·m³/mol): -7.09; log10 vapour pressure (mmHg): -3.56
NC(=O)CN1Cc2ccccc2OC1=O,204 °C,–,–
CCOCCOC(C)=O,-61.7 °C,156 °C,log10 Henry constant (atm·m³/mol): -5.49; log10 vapour pressure (mmHg): 0.369; ready biodegradability: readily biodegradable
CCCCCCCCCCCCCCCCC(=O)OC,30 °C,–,–
Cc1ccc(C=O)c(O)c1,60.5 °C,223 °C,–
CCCCC(CC)CCl (centres undefined),–,172 °C,log10 vapour pressure (mmHg): 0.0792
CCCCCCC(C)NC(C)CCCCCC (centres undefined),–,283 °C,–
O=C(O)CCc1ccco1,58 °C,229 °C,–
COP(=S)(Oc1cc(Cl)c(Br)cc1Cl)c1ccccc1 (centres undefined),70.4 °C,–,log10 Koc (L/kg): 4.5; log10 vapour pressure (mmHg): -7.64; log10 BCF: 3.78; log10 biotransformation half-life (days): 1.26
COc1ccc(OC)c(N)c1,82.5 °C,270 °C,–
CC(F)(F)Cl,-131 °C,-9.7 °C,log10 Henry constant (atm·m³/mol): -1.23; log10 vapour pressure (mmHg): 3.41
Cc1cc(=O)nc(C(C)C)[nH]1,173 °C,–,ready biodegradability: not readily biodegradable; log10 BCF: 0.26
C=CCOc1ccc(CC(=O)O)cc1Cl,92.5 °C,–,–
O=Cc1ccccc1F,-44.5 °C,175 °C,–
Sc1nc2ccccc2s1,181 °C,–,log10 Koc (L/kg): 2.25; ready biodegradability: readily biodegradable; log10 BCF: 0.9
Cc1cc(Cl)cc2c1SC(=C1Sc3c(C)cc(Cl)cc3C1=O)C2=O,–,–,log10 vapour pressure (mmHg): -9.52
CC1=C(O)C(=O)C(C)O1 (centres undefined),80.5 °C,–,–
S=C1CCCCCN1,108 °C,–,–
C[C@]12C/C(=C/O)C(=O)C[C@@H]1CC[C@@H]1[C@@H]2CC[C@@]2(C)[C@H]1CC[C@]2(C)O,179 °C,–,–
